In ChEMBL document CHEMBL1201862, “PubChem BioAssay data set” (2004):
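Where inhibition never reached the appropriate level, the endpoint shown equals the highest concentration tested. Otherwise, values were interpolated linearly from a five-concentration, 48-hour dose response in 96-well plates. GI50 is the concentration that inhibits growth by half.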 Calls of active or inactive are those of the source. Rule as the data show it: active = GI50 up to about 1.1 µM and inactive = higher.

Legend:
Experiment in all cases: NCI tumour cell line growth inhibition, 48 h
UACC-62 = tested on: UACC-62
SNB-75 = tested on: SNB-75
SR = tested on: SR
A549 = tested on: A549
UO-31 = tested on: UO-31
SF-295 = tested on: SF-295
CAKI-1 = tested on: CAKI-1
Malme-3M = tested on: Malme-3M
SF-268 = tested on: SF-268
SF-539 = tested on: SF-539
COLO 205 = tested on: COLO 205
A498 = tested on: A498
HCT-15 = tested on: HCT-15
OVCAR-4 = tested on: OVCAR-4
SNB-19 = tested on: SNB-19
EKVX = tested on: EKVX
NCI-H226 = tested on: NCI-H226

| Compound | GI50 (UACC-62) | GI50 (SNB-75) | GI50 (SR) | GI50 (A549) | GI50 (UO-31) | GI50 (SF-295) | GI50 (CAKI-1) | GI50 (Malme-3M) | GI50 (SF-268) | GI50 (SF-539) | GI50 (COLO 205) | GI50 (A498) | GI50 (HCT-15) | GI50 (OVCAR-4) | GI50 (SNB-19) | GI50 (EKVX) | GI50 (NCI-H226) |
| --- | --- | --- | --- | --- | --- | --- | --- | --- | --- | --- | --- | --- | --- | --- | --- | --- | --- |
| COc1ccc2c([nH]c3c(O)c(-c4c(C)cc5c([nH]c6c(CC=C(C)C)c(OC)ccc65)c4O)c(C)cc32)c1CC=C(C)C [BISMURRAYAFOLINE B] | > 100 µM (inactive) | > 100 µM (inactive) | > 100 µM (inactive) | > 100 µM (inactive) | > 100 µM (inactive) | > 100 µM (inactive) | > 100 µM (inactive) | > 100 µM (inactive) | > 100 µM (inactive) | > 100 µM (inactive) | > 100 µM (inactive) | > 100 µM (inactive) | > 100 µM | > 100 µM (inactive) | > 100 µM (inactive) |  |  |
| O=C1C=C(Nc2ccccc2C(=O)CC(=O)C(=O)Nc2ccc(Cl)c(Cl)c2)c2ccccc2C1=O | 23.6 µM (inactive) |  | 5 µM (inactive) | 53.1 µM (inactive) | 50.7 µM (inactive) | 59 µM (inactive) | 87.3 µM (inactive) | 12.6 µM (inactive) | 19.9 µM (inactive) | 51.2 µM (inactive) | > 100 µM (inactive) | > 100 µM (inactive) | 20.4 µM | 59.4 µM (inactive) | 37.5 µM (inactive) | > 10 µM (inactive) | 55.5 µM (inactive) |
| COc1cc(C(C)c2cc3c(cc2OCCCCOc2cc4c(cc2C(C)c2cc(OC)c(OC)c(OC)c2)OCO4)OCO3)cc(OC)c1OC (centres undefined) | 21.1 µM (inactive) | 24.8 µM (inactive) | 10.2 µM (inactive) | 48.4 µM (inactive) | 46.3 µM (inactive) | 26.5 µM (inactive) | > 100 µM (inactive) | 35.6 µM (inactive) | 51.5 µM (inactive) | 23.7 µM (inactive) | > 100 µM (inactive) |  | 34.8 µM | 92.3 µM (inactive) | > 100 µM (inactive) | 40.5 µM (inactive) | 31.5 µM (inactive) |
| CCC1=NC(CO)[C@H](c2ccccc2)O1 (some centres undefined) | > 100 µM (inactive) | > 100 µM (inactive) | > 100 µM (inactive) | > 100 µM (inactive) |  | > 100 µM (inactive) | > 100 µM (inactive) | > 100 µM (inactive) | > 100 µM (inactive) | > 100 µM (inactive) | > 100 µM (inactive) | > 100 µM (inactive) | > 100 µM | > 100 µM (inactive) | > 100 µM (inactive) | > 100 µM (inactive) |  |
| Oc1cc(-c2c[nH]c3ccccc23)nc2cc3c(cc12)OCO3 | 66.8 µM (inactive) | 21.6 µM (inactive) | > 100 µM (inactive) | > 100 µM (inactive) | > 100 µM (inactive) | 92.3 µM (inactive) |  | 23.6 µM (inactive) | > 100 µM (inactive) | > 100 µM (inactive) | > 100 µM (inactive) | > 100 µM (inactive) | > 100 µM | 3.79 µM (inactive) | > 100 µM (inactive) | > 100 µM (inactive) | > 100 µM (inactive) |
| CC(C)(C)C1CCC2(CC1)c1[nH]c3ccccc3c1C1(CCC(C(C)(C)C)CC1)c1[nH]c3ccccc3c12 (centres undefined) | > 100 µM (inactive) | 70.1 µM (inactive) |  | > 100 µM (inactive) | > 100 µM (inactive) | > 100 µM (inactive) | > 100 µM (inactive) | > 100 µM (inactive) | > 100 µM (inactive) | > 100 µM (inactive) | 88.9 µM (inactive) | > 100 µM (inactive) | > 100 µM | > 100 µM (inactive) | > 100 µM (inactive) | > 100 µM (inactive) | > 100 µM (inactive) |
| C1=CC=C2NCCOCC/N=C3/C=CC=CC=C3NCCOCC/N=C\2C=C1 | 47.9 µM (inactive) | > 100 µM (inactive) |  | 63.7 µM (inactive) | > 100 µM (inactive) | 52 µM (inactive) | > 100 µM (inactive) | 21.5 µM (inactive) | > 100 µM (inactive) |  | 45 µM (inactive) | > 100 µM (inactive) | 41.3 µM | 59.2 µM (inactive) | > 100 µM (inactive) | > 100 µM (inactive) | > 100 µM (inactive) |
| O=C(O)CP(=S)(S)c1ccccc1 (centres undefined) | > 100 µM (inactive) |  | > 100 µM (inactive) | > 100 µM (inactive) | > 100 µM (inactive) | > 100 µM (inactive) | > 100 µM (inactive) | > 100 µM (inactive) | > 100 µM (inactive) | > 100 µM (inactive) | > 100 µM (inactive) | > 100 µM (inactive) |  | > 100 µM (inactive) | > 100 µM (inactive) | > 100 µM (inactive) | > 100 µM (inactive) |
| COC(=O)C1=C(c2ccc(OC)c(OC)c2)OC(c2cc(OC)c(OC)c(OC)c2)C1 (centres undefined) |  | 7.31 µM (inactive) |  | > 100 µM (inactive) | > 100 µM (inactive) | 23 µM (inactive) | 60.3 µM (inactive) | 42.4 µM (inactive) | 27.9 µM (inactive) | 30.2 µM (inactive) |  | 25.6 µM (inactive) |  | 16.1 µM (inactive) |  | > 100 µM (inactive) | 50.8 µM (inactive) |
| C1CCN(C2OC3C(COC3N3CCCCC3)OC2OC2CCO[C@@H]2N2CCCCC2)CC1 (some centres undefined) | 13.4 µM (inactive) | 9.98 µM (inactive) |  | 51.3 µM (inactive) | 44.5 µM (inactive) | 47.5 µM (inactive) | 30.1 µM (inactive) | 21.1 µM (inactive) | 53.7 µM (inactive) | 16.5 µM (inactive) | 38.3 µM (inactive) | 34.1 µM (inactive) | 29.5 µM | 34 µM (inactive) | 36.2 µM (inactive) | 33.8 µM (inactive) | 20 µM (inactive) |
| O=C1C2Cc3ccccc3CN2C(=O)N1CN1CCN(CN2C(=O)C3Cc4ccccc4CN3C2=O)CC1 (centres undefined) | > 100 µM (inactive) | > 100 µM (inactive) |  | > 100 µM (inactive) | > 100 µM (inactive) | > 100 µM (inactive) | > 100 µM (inactive) | > 100 µM (inactive) | > 100 µM (inactive) | > 100 µM (inactive) | > 100 µM (inactive) | > 100 µM (inactive) | > 100 µM |  | > 100 µM (inactive) | > 100 µM (inactive) | > 100 µM (inactive) |
| Cc1ccc(NS(=O)(=O)c2cc(C(C)(C)C)ccc2OCCOCCOCCOc2ccc(C(C)(C)C)cc2S(=O)(=O)Nc2ccc(C)cc2)cc1 | > 100 µM (inactive) | > 100 µM (inactive) |  | > 100 µM (inactive) | > 100 µM (inactive) | > 100 µM (inactive) | > 100 µM (inactive) | > 100 µM (inactive) | > 100 µM (inactive) | > 100 µM (inactive) | > 100 µM (inactive) | > 100 µM (inactive) | > 100 µM | > 100 µM (inactive) | > 100 µM (inactive) | > 100 µM (inactive) | > 100 µM (inactive) |
| CC1=C(C(=O)Nc2ccc([N+](=O)[O-])cc2)C(c2cccc([N+](=O)[O-])c2)C(C(=O)Nc2ccc([N+](=O)[O-])cc2)=C(C)N1 | 5.28 µM (inactive) | 23.7 µM (inactive) |  | 29.7 µM (inactive) | > 100 µM (inactive) | 30.1 µM (inactive) |  | 25.2 µM (inactive) | 21.6 µM (inactive) | 60.3 µM (inactive) | 45.8 µM (inactive) | 32.8 µM (inactive) | 61.7 µM | 48.6 µM (inactive) | 52.7 µM (inactive) | 48.2 µM (inactive) | 58.3 µM (inactive) |
| COC(=O)C1=C(C)N(NC(N)=O)C2(N)N(NC(N)=O)C(C)=C(C(=O)OC)C12C#N (centres undefined) | > 100 µM (inactive) |  |  | > 100 µM (inactive) | > 100 µM (inactive) | > 100 µM (inactive) | > 100 µM (inactive) | > 100 µM (inactive) | > 100 µM (inactive) | > 100 µM (inactive) | > 100 µM (inactive) | > 100 µM (inactive) | > 100 µM | > 100 µM (inactive) | > 100 µM (inactive) | > 100 µM (inactive) | > 100 µM (inactive) |
| CON1C(=O)C2(CCCCC2)C(=O)C12C=CC(C)CC2 (centres undefined) | > 100 µM (inactive) | > 100 µM (inactive) |  | > 100 µM (inactive) | 47.4 µM (inactive) | > 100 µM (inactive) | > 100 µM (inactive) | > 100 µM (inactive) | > 100 µM (inactive) | > 100 µM (inactive) | > 100 µM (inactive) | > 100 µM (inactive) | > 100 µM |  | > 100 µM (inactive) | 48.2 µM (inactive) | 76.6 µM (inactive) |
| COc1ccc(S(=O)(=O)N/N=C/c2cc(I)cc([N+](=O)[O-])c2O)cc1OC | 25.8 µM (inactive) |  |  | > 100 µM (inactive) | 22 µM (inactive) | 29 µM (inactive) | 31.6 µM (inactive) | 28.7 µM (inactive) |  |  | 50.9 µM (inactive) | 54.2 µM (inactive) | 36.6 µM | 25.2 µM (inactive) | 26.3 µM (inactive) | 44.5 µM (inactive) | 22.7 µM (inactive) |
| CN(C)C(=C1C(Br)=C(Br)C(Br)=C1Br)N(C)C | > 100 µM (inactive) | 38.6 µM (inactive) |  | > 100 µM (inactive) | > 100 µM (inactive) | > 100 µM (inactive) | > 100 µM (inactive) | > 100 µM (inactive) | > 100 µM (inactive) | > 100 µM (inactive) | > 100 µM (inactive) |  | > 100 µM | > 100 µM (inactive) |  | > 100 µM (inactive) |  |
| CC1=NN(C(=O)Cc2ccccc2)C(=O)/C1=C\C=C\c1ccccc1 |  | > 100 µM (inactive) | > 100 µM (inactive) | > 100 µM (inactive) | > 100 µM (inactive) | > 100 µM (inactive) | > 100 µM (inactive) | > 100 µM (inactive) | > 100 µM (inactive) | > 100 µM (inactive) | > 100 µM (inactive) |  | > 100 µM | > 100 µM (inactive) | > 100 µM (inactive) | > 100 µM (inactive) | > 100 µM (inactive) |
